Data reported in patent US11827628B2, “Compositions and methods for inhibition of the JAK pathway” (Rigel Pharmaceuticals, Inc., priority 2005, dated 2023).
Like-named read-outs stand apart in the source and are kept apart here. One block for each compound: values may come before it.

Legend:
Primary human T-cells = experiment: Primary Human T-Cell Proliferation Assay Stimulated with IL-2 (CellTiter-Glo); type: cell-based; conditions: read-out: IC50, Example 42
Excerpt: The activity of the active compounds of the invention may further be characterized by assaying the effect of the 2,4-substituted pyrimidinediamine compounds described herein on the proliferative response of primary human T-cells. In this assay, primary human T-cells derived from peripheral blood and pre-activated through stimulation of the T-cell receptor and CD28, proliferate in culture in response to the cytokine Interleukin-2 (IL-2). This proliferative response is dependent on the activation of JAK1 and JAK3 tyrosine kinases, which phosphorylate and activate the transcription factor Stat-5. The primary human T-cells are incubated with the 2,4-substituted pyrimidinediamine compounds in the presence of IL-2 for 72 hours and at the assay endpoint intracellular ATP concentrations are measured to assess cell viability. A reduction in cell proliferation compared to control conditions is indicative of inhibition of the JAK kinase pathway. An exemplary assay of this type is described in greater detail in Example 42
Primary human T-cells derived from peripheral blood and pre-activated through stimulation of the T-cell receptor and CD28, proliferate in vitro in response to the cytokine Interleukin-2 (IL-2). This proliferative response is dependent on the activation of JAK-1 and JAK-3 tyrosine kinases, which phosphorylate and activate the transcription factor Stat-5.
Human primary T cells were prepared as follows. Whole blood was obtained from a healthy volunteer, mixed 1:1 with PBS, layered on to Ficoll Hypaque (Amersham Pharmacia Biotech, Piscataway, NJ, Catalog #17-1440-03) in 2:1 blood/PBS:ficoll ratio and centrifuged for 30 min at 4° C. at 1750 rpm. The lymphocytes at the serum: ficoll interface were recovered and washed twice with 5 volumes of PBS. The cells were resuspended in Yssel's medium (Gemini Bio-products, Woodland, CA, Catalog #400-103) containing 40 U/mL recombinant IL2 (R and D Systems, Minneapolis, MN, Catalog #202-IL (20 rig)) and seeded into a flask pre-coated with 1 μg/mL anti-CD3 (BD Pharmingen, San Diego, CA, Catalog #555336) and 5 μg/mL anti-CD28 (Immunotech, Beckman Coulter of Brea CA, Catalog #IM1376). The primary T-cells were stimulated for 3-4 days, then transferred to a fresh flask and maintained in RPMI with 10% FBS and 40 U/mL IL-2.
Primary T-cells were washed twice with PBS to remove the IL-2 and resuspended in Yssel's medium at 2×10^6 cells/mL. 50 μL of cell suspension containing 80 U/mL IL-2 was added to each well of a flat bottom 96 well black plate. For the unstimulated control, IL-2 was omitted from the last column on the plate. Compounds were serially diluted in dimethyl sulfoxide (DMSO, 99.7% pure, cell culture tested, Sigma-Aldrich, St. Louis, MO, Catalog No. D2650) from 5 mM in 3-fold dilutions, and then diluted 1:250 in Yssel's medium. 50 μL of 2× compound was added per well in duplicate and the cells were allowed to proliferate for 72 hours at 37° C.
Proliferation was measured using CellTiter-Glo® Luminescent Cell Viability Assay (Promega), which determines the number of viable cells in culture based on quantitation of the ATP present, as an indicator of metabolically active cells. The substrate was thawed and allowed to come to room temperature. After mixing the Cell Titer-Glo reagent and diluent together, 100 μL was added to each well. The plates were mixed on an orbital shaker for two minutes to induce lysis and incubated at room temperature for an additional ten minutes to allow the signal to equilibrate. Detection was performed using a Wallac Victor2 1420 multilabel counter purchased from Perkin Elmer, Shelton, CT The IC50 calculated based on the results of this assay are provided in TABLE XII.

[1] = tested on: IL-4 stimulated expression of CD23 in human Ramos B cells (JAK-1 and JAK-3); experiment: Assay for Ramos B-Cell Line Stimulated with IL-4 (CD23 upregulation, FACS); type: cell-based; conditions: read-out: IC50, Example 41
Method in brief: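 Read-out is surface CD23 by FACS after anti-CD23-PE staining, giving IC50. Before this, cells were stimulated 20-24 h with 50 units/mL (final) human IL-4, following 1 h compound or vehicle pre-treatment at 37 °C; log-phase Ramos B cells, 5×10^4 per well in 5% serum RPMI.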

[2] = Homo sapiens, T-cell, primary human T-cells stimulated with IL-2, proliferation
[3] = Homo sapiens, Ramos, Ramos B cells stimulated with IL-4, CD23 expression by FACS
[4] = primary human T-cell proliferation stimulated with IL-2
[5] = Ramos B-cell line stimulated with IL-4, CD23 expression by FACS
[6] = primary human T-cells stimulated with IL-2, proliferation
[7] = Ramos B cells stimulated with IL-4, CD23 expression by FACS
[8] = Homo sapiens, T-cell, primary human T-cell proliferation stimulated with IL-2
[9] = Homo sapiens, Ramos, Ramos B-cell line stimulated with IL-4, CD23 expression by FACS

Compound: COc1ccc(Nc2nc(Nc3ccc(S(N)(=O)=O)cc3)ncc2F)cc1Cl [VI-106, N2-(4-Aminosulfonylphenyl)-5-fluoro-N4-(4-methoxy-3-chlorophenyl]-2,4-pyrimidinediamine]
IC50 (Primary human T-cells; [2]): 1.2 µM | IC50 [1, 3]: 0.0622 µM

Compound: NS(=O)(=O)c1ccc(Nc2ncc(F)c(Nc3ccc(-c4cnco4)cc3)n2)cc1 [IV-8, N2-(4-Aminosulfonylphenyl)-5-fluoro-N4-[4-(1,3-oxazol-5-yl)phenyl]-2,4-pyrimidinediamine]
IC50 (Primary human T-cells; [2]): 0.627 µM | IC50 [1, 3]: 0.166 µM

Compound: Cc1cc(COc2ccc(Nc3nc(Nc4ccc(Cl)c(S(N)(=O)=O)c4)ncc3F)cc2)no1 [Compound I-220, N2-(3-Aminosulfonyl-4-chlorophenyl)-5-fluoro-N4-[4-(5-methylisoxazol-3-yl)methyleneoxyphenyl]-2,4-pyrimidinediamine]
IC50 (Primary human T-cells; [4]): 1.07 µM | IC50 [1, 5]: 0.121 µM

Compound: Cc1ccc(Nc2ncc(F)c(Nc3ccc(CCCCO)cc3)n2)cc1S(N)(=O)=O [VI-90, N2-(3-Aminosulfonyl-4-methylphenyl)-5-fluoro-N4-[4-(4-hydroxybutyl)phenyl]-2,4-pyrimidinediamine]
IC50 (Primary human T-cells; [2]): 3.97 µM | IC50 [1, 3]: 1.07 µM

Compound: Cc1ccc(Nc2ncc(F)c(Nc3ccc(Cn4ccnc4C)cc3)n2)cc1S(N)(=O)=O [III-91, N2-(3-Aminosulfonyl-4-methylphenyl)-5-fluoro-N4-[4-(2-methyl-1-imidazolylmethyl)phenyl]-2,4-pyrimidinediamine]
IC50 (Primary human T-cells; [6]): 0.467 µM | IC50 [1, 7]: 0.143 µM

Compound: CNS(=O)(=O)c1cc(Nc2ncc(F)c(Nc3ccc(-c4ccccn4)c(OCCl)c3)n2)ccc1C [IX-54, 5-Fluoro-N2-[3-N-(methyl)aminosulfonyl-4-methylphenyl]-N4-[4-(2-pyridinyl)-3-chloromethyleneoxyphenyl]-2,4-pyrimidinediamine]
IC50 (Primary human T-cells; [6]): 2.47 µM | IC50 [1, 7]: 0.174 µM

Compound: NS(=O)(=O)c1cccc(Nc2ncc(F)c(Nc3ccc(OCc4ccccn4)cc3)n2)c1 [Compound I-162, N2-(3-Aminosulfonylphenyl)-5-fluoro-N4-[4-(2-pyridinyl)methyleneoxyphenyl]-2,4-pyrimidinediamine]
IC50 (Primary human T-cells; [4]): 0.136 µM | IC50 [1, 5]: 0.051 µM

Compound: N4-(4-Acetylthiomethylcarbonylphenyl)-N2-(3-aminosulfonylphenyl)-5-fluoro-2,4-pyrimidinediamine [IX-42]
IC50 (Primary human T-cells; [6]): 2.17 µM | IC50 [1, 7]: 0.292 µM

Compound: COc1ccc(Nc2nc(Nc3cc(C)c(OC)c(S(N)(=O)=O)c3)ncc2F)cc1Cl [VI-30, N2-(3-Aminosulfonyl-4-methoxy-5-methylphenyl)-N4-(3-chloro-4-methoxyphenyl)-5-fluoro-2,4-pyrimidinediamine]
IC50 (Primary human T-cells; [2]): 0.17 µM | IC50 [1, 3]: 0.0132 µM

Compound: CN(C)S(=O)(=O)c1cccc(Nc2nc(Nc3cccc(S(N)(=O)=O)c3)ncc2F)c1 [IV-9, N2-(3-Aminosulfonylphenyl)-5-fluoro-N4-[3-(N,N-dimethylaminosulfonyl)phenyl]-2,4-pyrimidinediamine]
IC50 (Primary human T-cells; [2]): 1 µM | IC50 [1, 3]: 0.19 µM

Compound: N#CCOc1ccc(Nc2nc(Nc3ccc(S(N)(=O)=O)cc3)ncc2F)cc1 [Compound I-16, N2-(4-Aminosulfonyl)phenyl-N4-(4-cyanomethoxy)phenyl-5-fluoro-2,4-pyrimidinediamine]
IC50 (Primary human T-cells; [4]): 0.436 µM | IC50 [1, 5]: 0.124 µM

Compound: CC(=O)N1CCN(C(=O)c2ccc(Nc3nc(Nc4ccc(C)c(S(N)(=O)=O)c4)ncc3F)cc2)CC1 [IX-24, N4-[4-(1-Acetyl-4-piperizinyl)carbonylphenyl]-N2-(3-Aminosulfonyl-4-methylphenyl)-5-fluoro-2,4-pyrimidinediamine]
IC50 (Primary human T-cells; [6]): 38.4 µM | IC50 [1, 7]: 6.33 µM

Compound: C#CCNS(=O)(=O)c1ccc(Nc2nc(Nc3ccc(C)c(S(N)(=O)=O)c3)ncc2F)cc1 [VI-76, N2-(3-Aminosulfonyl-4-methylphenyl)-5-fluoro-N4-[4-(prop-2-ynylaminosulfonyl)phenyl]-2,4-pyrimidinediamine]
IC50 (Primary human T-cells; [2]): 0.783 µM | IC50 [1, 3]: 0.549 µM

Compound: CNS(=O)(=O)c1cccc(Nc2nc(Nc3ccc(C)c(S(N)(=O)=O)c3)ncc2F)c1 [IV-12, N2-(3-Aminosulfonyl-4-methylphenyl)-5-fluoro-N4-[3-(N-methylaminosulfonyl)phenyl]-2,4-pyrimidinediamine]
IC50 (Primary human T-cells; [2]): 1.22 µM | IC50 [1, 3]: 0.257 µM

Second part, led by results:

IC50 [1, 5]: 0.271 µM
Compound: Cc1ccc(Nc2ncc(F)c(Nc3ccc(CNC(=O)C4CC4)cc3)n2)cc1S(N)(=O)=O [III-43, N2-(3-aminosulfonyl-4-methyl)phenyl-N4-(4-cyclopropylcarbonylaminomethyl)phenyl-5-fluoro-2,4-pyrimidinediamine]
IC50 (Primary human T-cells; [4]): 0.897 µM

IC50 [1, 3]: 0.313 µM
Compound: Cc1ccc(Nc2ncc(F)c(N[C@H]3[C@@H](C(N)=O)[C@@H]4C=C[C@H]3C4)n2)cc1S(N)(=O)=O [VII-82, (1R,2R,3S,4S)N4-(3-Aminocarbonylbicyclo[2.2.1]hept-5-en-2-yl)-N2-(3-aminosulfonyl-4-methylphenyl)-5-fluoro-2,4-pyrimidinediamine]
IC50 (Primary human T-cells; [2]): 1.08 µM

IC50 [1, 3]: 0.812 µM
Compound: NS(=O)(=O)c1cccc(Nc2ncc(F)c(Nc3cccc4ncccc34)n2)c1 [VII-68, N2-(3-Aminosulfonylphenyl)-5-fluoro-N4-(quinolin-5-yl)-2,4-pyrimidinediamine]
IC50 (Primary human T-cells; [2]): 1.3 µM

IC50 [1, 7]: 0.624 µM
Compound: CCNC(=O)NCc1cccc(Nc2nc(Nc3ccc(C)c(S(N)(=O)=O)c3)ncc2F)c1 [III-118, N2-(3-aminosulfonyl-4-methyl)phenyl-N4-(3-ethylaminocarbonylaminomethyl)phenyl-5-fluoro-2,4-pyrimidinediamine]
IC50 (Primary human T-cells; [6]): 2.29 µM

IC50 [1, 5]: 0.211 µM
Compound: Cc1ccc(Nc2ncc(F)c(Nc3ccc(CCC(N)=O)cc3)n2)cc1S(N)(=O)=O [III-47, N4-[4-(2-Aminocarboxylethylene)phenyl]-5-fluoro-N2-(4-methyl-3-aminosulfonylphenyl)-2,4-pyrimidinediamine]
IC50 (Primary human T-cells; [4]): 0.366 µM

IC50 [1, 9]: 0.259 µM
Compound: CNC(=O)OCCc1ccc(Nc2nc(Nc3ccc(Cl)c(S(N)(=O)=O)c3)ncc2F)cc1 [III-61, N2-(3-Aminosulfonyl-4-chlorophenyl)-5-fluoro-N4-{4-[2-(methylaminocarbonyloxy)ethyl]phenyl}-2,4-pyrimidinediamine]
IC50 (Primary human T-cells; [8]): 1.08 µM

IC50 [1, 3]: 0.0858 µM
Compound: NS(=O)(=O)c1cccc(Nc2ncc(F)c(Nc3cccc4cccnc34)n2)c1 [VII-78, N2-(3-Aminosulfonylphenyl)-5-fluoro-N4-(quinolin-8-yl)-2,4-pyrimidinediamine]
IC50 (Primary human T-cells; [2]): 0.682 µM

IC50 [1, 5]: 0.162 µM
Compound: Cc1cc(CCC#N)ccc1Nc1nc(Nc2cccc(S(N)(=O)=O)c2)ncc1F [III-26, N2-(3-Aminosulfonylphenyl)-N4-(4-cyanoethylene-2-methylphenyl)-5-fluoro-2,4-pyrimidinediamine]
IC50 (Primary human T-cells; [4]): 0.583 µM

IC50 [1, 9]: 0.295 µM
Compound: N#CCCc1ccc(Nc2nc(Nc3ccc(Cl)c(S(N)(=O)=O)c3)ncc2F)cc1 [III-13, N2-(3-Aminosulfonyl-4-chlorophenyl)-N4-[4-(2-cyanoethyl)phenyl]-5-fluoro-2,4-pyrimidinediamine]
IC50 (Primary human T-cells; [8]): 0.701 µM
